Test results from the supplement of paper PMC4862054.

Experiments:
Conditions in all cases: incubation time: 72 h
[1] = system: HCC1599; test: drug sensitivity score (DSS), CellTox Green (DSS (AUC-based score)); higher = stronger drug effect (viability inhibition or cytotoxicity); extreme values may be limits of the assay
How it was run: (§1)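 Using 20 µl of cell suspension per well, breast cancer cell lines were seeded into 384-well plates pre-loaded with compound at 5 concentrations in 10-fold steps across a compound-specific 10,000-fold range. Incubation lasted 72 h, after which CellTox Green fluorescence at 485/520 nm and then CellTiter-Glo luminescence, following 10 min at room temperature, were recorded. Each plate was normalised to 0.1 % DMSO and a positive kill control before the drug sensitivity score was derived from the area under the fitted dose-response curve.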

[2] = system: CAL-120; test: as above
How it was run: as §1

[3] = system: MDA-MB-468; test: as above
How it was run: as §1

[4] = system: MDA-MB-436; test: as above
How it was run: as §1

[5] = system: CAL-51; test: as above
How it was run: as §1

[6] = system: MDA-MB-231; test: as above
How it was run: as §1

[7] = system: MCF-10A; test: as above
How it was run: as §1

[8] = system: BT-474; test: as above
How it was run: as §1

[9] = system: HCC1143; test: as above
How it was run: as §1

[10] = system: DU-4475; test: as above
How it was run: as §1

[11] = system: Hs578T; test: as above
How it was run: as §1

[12] = system: MDA-MB-453; test: as above
How it was run: as §1

[13] = system: HCC1937; test: as above
How it was run: as §1

[14] = system: HDQ-P1; test: as above
How it was run: as §1

[15] = system: CAL-85-1; test: as above
How it was run: as §1

[16] = system: BT-549; test: as above
How it was run: as §1

[17] = system: HCC1599; test: normalised viability (% of control), CellTiter-Blue; higher = more viable cells (about 100 = DMSO control)
How it was run: (§2)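 Each entry is normalised viability at a single listed concentration within a series. It comes from breast cancer cell lines incubated 72 h with compound in 384-well plates, then measured with CellTiter-Blue fluorescence at 560/590 nm. Every plate was normalised between vehicle (100) and a positive kill control (0).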

[18] = system: MDA-MB-468; test: as above
How it was run: as §2

[19] = system: CAL-51; test: as above
How it was run: as §2

[20] = system: MDA-MB-231; test: as above
How it was run: as §2

[21] = system: BT-474; test: as above
How it was run: as §2

[22] = system: HCC1143; test: as above
How it was run: as §2

[23] = system: DU-4475; test: as above
How it was run: as §2

[24] = system: HCC1937; test: as above
How it was run: as §2

[25] = system: HDQ-P1; test: as above
How it was run: as §2

Work on `O=[N+]([O-])c1ccc2c(c1)S(=O)(=O)C=C2` [Stattic] yielded a drug sensitivity score [1] of 0, a drug sensitivity score [2] of 2.06 and a drug sensitivity score [3] of 19.8. For the same compound, the drug sensitivity score [4] was 6.1, the drug sensitivity score [5] was 16.9 and the drug sensitivity score [6] was 11.6. It also gave a drug sensitivity score [7] of 19.5, a drug sensitivity score [8] of 15.9 and a drug sensitivity score [9] of 6.3. It also gave a drug sensitivity score [10] of 0, a drug sensitivity score [11] of 18.1 and a drug sensitivity score [12] of 2.97. It also gave a drug sensitivity score [13] of 25, a drug sensitivity score [14] of 2.09 and a drug sensitivity score [15] of 19.7. It also gave a drug sensitivity score [16] of 19.8.

`C=CCN(/C=C1/C(=O)O[C@H](COC)[C@@]2(C)C1=C(O)C(=O)C1=C2[C@H](OC(C)=O)C[C@]2(C)C(=O)CC[C@@H]12)CC=C` [Sonolisib] was tested, and the drug sensitivity score [1] was 0, the drug sensitivity score [2] was 0 and the drug sensitivity score [4] was 0. It also gave a drug sensitivity score [5] of 0, a drug sensitivity score [6] of 0 and a drug sensitivity score [7] of 0. It also gave a drug sensitivity score [8] of 0, a drug sensitivity score [9] of 0 and a drug sensitivity score [10] of 0. The drug sensitivity score [11] was 0, the drug sensitivity score [12] was 0 and the drug sensitivity score [13] was 0. For the same compound, the drug sensitivity score [14] was 0, the drug sensitivity score [15] was 2.28 and the drug sensitivity score [16] was 0.

With `COc1c2occc2cc2ccc(=O)oc12` [Methoxsalen] the normalised viability ([17]; 10 nM) was 106%, the normalised viability ([17]; 1000 nM) was 85% and the normalised viability ([17]; 10000 nM) was 93.5%. It also gave a normalised viability ([18]; 10 nM) of 107%, a normalised viability ([18]; 1000 nM) of 112% and a normalised viability ([18]; 10000 nM) of 105%. The normalised viability ([19]; 3 nM) was 109%, the normalised viability ([19]; 30 nM) was 109% and the normalised viability ([19]; 100 nM) was 104%. For the same compound, the normalised viability ([20]; 10 nM) was 102%, the normalised viability ([20]; 1000 nM) was 99.1% and the normalised viability ([20]; 10000 nM) was 112%. The normalised viability ([21]; 10 nM) was 123%, the normalised viability ([21]; 1000 nM) was 102% and the normalised viability ([21]; 10000 nM) was 117%. The normalised viability ([22]; 10 nM) was 91.8%, the normalised viability ([22]; 1000 nM) was 99.1% and the normalised viability ([22]; 10000 nM) was 94.2%. For the same compound, the normalised viability ([23]; 3 nM) was 95.6%, the normalised viability ([23]; 30 nM) was 111% and the normalised viability ([23]; 100 nM) was 111%. For the same compound, the normalised viability ([24]; 10 nM) was 68.3%, the normalised viability ([24]; 1000 nM) was 36% and the normalised viability ([24]; 10000 nM) was 77.7%. It also gave a normalised viability ([25]; 3 nM) of 115%, a normalised viability ([25]; 30 nM) of 104% and a normalised viability ([25]; 100 nM) of 105%.

`CCNC(=O)CCC/C=C\C[C@@H]1[C@@H](/C=C/[C@@H](O)CCc2ccccc2)[C@H](O)C[C@@H]1O` [Bimatoprost] gave a normalised viability ([17]; 5.5 nM) of 111%, a normalised viability ([17]; 550 nM) of 111% and a normalised viability ([17]; 5500 nM) of 112%. For the same compound, the normalised viability ([18]; 5.5 nM) was 97.1%, the normalised viability ([18]; 550 nM) was 123% and the normalised viability ([18]; 5500 nM) was 111%. The normalised viability ([19]; 1.65 nM) was 124%, the normalised viability ([19]; 16.5 nM) was 114% and the normalised viability ([19]; 55 nM) was 112%. For the same compound, the normalised viability ([20]; 5.5 nM) was 100%, the normalised viability ([20]; 550 nM) was 97.2% and the normalised viability ([20]; 5500 nM) was 97.6%. It also gave a normalised viability ([21]; 5.5 nM) of 112%, a normalised viability ([21]; 550 nM) of 106% and a normalised viability ([21]; 5500 nM) of 127%. It also gave a normalised viability ([22]; 5.5 nM) of 102%, a normalised viability ([22]; 550 nM) of 104% and a normalised viability ([22]; 5500 nM) of 94.2%. The normalised viability ([23]; 1.65 nM) was 112%, the normalised viability ([23]; 16.5 nM) was 99.4% and the normalised viability ([23]; 55 nM) was 95.5%. For the same compound, the normalised viability ([24]; 5.5 nM) was 106%, the normalised viability ([24]; 550 nM) was 99.9% and the normalised viability ([24]; 5500 nM) was 89.6%. For the same compound, the normalised viability ([25]; 1.65 nM) was 111%, the normalised viability ([25]; 16.5 nM) was 103% and the normalised viability ([25]; 55 nM) was 102%. For the same compound, the drug sensitivity score [1] was 0, the drug sensitivity score [2] was 0 and the drug sensitivity score [4] was 0. It also gave a drug sensitivity score [5] of 0, a drug sensitivity score [6] of 0 and a drug sensitivity score [7] of 0. For the same compound, the drug sensitivity score [8] was 0, the drug sensitivity score [9] was 0 and the drug sensitivity score [10] was 0. For the same compound, the drug sensitivity score [11] was 2.06, the drug sensitivity score [12] was 0 and the drug sensitivity score [13] was 0. For the same compound, the drug sensitivity score [15] was 0 and the drug sensitivity score [16] was 0.
